Laboratory results from PMC10420772, “Characteristics of alanine racemase in Lactobacillus sakei ZH‐2 strain” (Food Science & Nutrition, 2023).
Blank lines part the entries; values can stand above or below the molecule they belong to.

Experiments:
[1] = target: T1, rALRase (recombinant alanine racemase of Lactobacillus sakei ZH-2) (Latilactobacillus sakei, UniProt Q38V64, T117A); test: racemase activity with and without PLP, D-amino acid oxidase/LDH-coupled; assay type: biochemical; settings: L-alanine substrate; 10 mM PLP in the standard assay, pH 9.0
T1 construct: gene alr; pCold I in E. coli BL21, His-tag purified, tag removed with Factor Xa

purified protein = substrate: C[C@H](N)C(=O)O; test: purified protein; settings: L-alanine 0.1-50 mM, L to D direction, standard assay 50 mM CHES-NaOH pH 9.0, 10 mM PLP, 37 °C

fold activity with PLP versus without [1]: 1.5–2 times
Molecule: Cc1ncc(COP(=O)(O)O)c(C=O)c1O [pyridoxal phosphate]

B1: rALRase (recombinant alanine racemase of Lactobacillus sakei ZH-2) (Latilactobacillus sakei subsp. sakei 23K; T117A) (protein)
chain: MTVGYLRPTRILVDQNAIYENIQNELKHLEGTDTVIFPVLKANAYGHGLIPVAEAAQAAGAAGFCVALLDEALALRRANFTEPILVLGITQPSEIELAAANQISLTVGSLEWLQEAAAIAQQVPYLHPVPIHLSIDSGMGRIGMRDEAELLAAYTFIKAHSDYFDFEGVFTHFATADDPDDTYFKEQSARFNQLMTALPERPRFVHVSNSATSLWHAACNGNIIRMGISLYGLNPSGNAIPDLPYPLKQALGIESELVFVKQVAAGTKIGYGATYEASEGEWIGTIPMGYADGWLRRMQGSTVLVDGQRCEIVGRICMDQMMIRLPKRYPVGTKVVFVGKSGDDEITLQEVADYADTIHYEIICDLSDRIPRVYTGLNEH
Km (purified protein): 1320 µM
